Measurements as given in patent US10457710B2, “Antimicrobial peptides, their variants and uses” (priority 2015, dated 2019).
Where a SMILES comes first, the peptide text is derived from it. [ ]: non-standard residue; d: D form.

What was measured:
Format in all cases: cell-based
C. quillermondiae = assay: MIC, clinical yeast strains; set-up: Minimum inhibitory concentration: unit: μg/ml; details: C. quillermondiae clinical yeast strain 1
Method: (§1) Minimum inhibition concetrations (MICs) were determined against Escherichia coli (ATCC 25922), Staphylococcus aureus (ATCC 25923), Klebsiella pneumoniae (ATCC 10031) and Pseudomonas aeruginosa (ATCC 27853). Also clinical strains of E. coli, K. pneumoniae, E. cloacae, P. aeruginosa, Serratia marcescens, Proteus mirabilis, S. pneumoniae, Acinetobacter baumannii, A. johnsonii and S. aureus were used for MICs assays. Additionally, clinical strains of yeast including Candida albicans, C. glabrata, C. parapsilosis and C. quillermondiae were used. The susceptibility of these microorganisms to Chain peptides were determined using micro broth dilution assay. Colonies of the respective microorganism from Muller Hinton (MH) agar plates incubated overnight were suspended in MH broth media and final concentration of microorganism was adjusted to 5.0×10^5 cfu/ml. An aliquot of 10 μl of each Chain peptide, or gentamicin, tetracycline as reference antibiotics were added in differing concentrations along with 90 μl of bacterial suspension to 96 well polypropylene plates and incubated at 37° C. for 20 to 24 hours. Concentrations of Chain peptides and reference antibiotics ranged from 0.125 to 128 μg/ml and the MICs were recorded as the lowest concentration with no visual growth of bacteria. Similarly, antifungal MICs were tested in Potato dextrose broth.
(§2) Clinical strains of yeasts including Candida albicans, C. glabrata, C. parapsilosis and C. quillermondiae were also tested with the 12 Chain peptides. The minimum inhibitory concentration (MICs) varied between these peptides and are presented in Tables 4a, 4b, 4c and 5a, 5b, 5c. Peptides Chain 105, 201 and 308 are broad spectrum antimicrobials with MICs between 0.5-32 μg/ml against all the bacteria and yeasts tested, except Serratia marcescens and Proteus mirabilis, against which the MICs were between 64-128 μg/ml. Peptide Chain 306 has narrow spectrum activity against E. coli at 1 μg/ml and for the rest of the bacterial strains at >32 μg/ml (FIG. 10c).

C. glabrata = assay: MIC, clinical yeast strains
Method: as §1, §2

Candida albicans = assay: MIC, clinical yeast strains
Method: as §1, §2

C. parapsilosis = assay: MIC, clinical yeast strains
Method: as §1, §2

[1] = system: clinical strains of K. pneumoniae; assay: MIC, microdilution, clinical strains; details: 0.02% BSA, 0.2% acetic acid
Method: as §1, §2

[2] = system: clinical strains of E. cloacae; assay: MIC, microdilution, clinical strains; details: 0.02% BSA, 0.2% acetic acid
Method: as §1, §2

[3] = system: clinical strains of Serratia marcescens; assay: MIC, microdilution, clinical strains; details: 0.02% BSA, 0.2% acetic acid
Method: as §1, §2

[4] = system: clinical strains of Proteus mirabilis; assay: MIC, microdilution, clinical strains; details: 0.02% BSA, 0.2% acetic acid
Method: as §1, §2

[5] = system: clinical strains of P. aeruginosa; assay: MIC, microdilution, clinical strains; details: 0.02% BSA, 0.2% acetic acid
Method: as §1, §2

[6] = system: clinical strains of S. pneumoniae; assay: MIC, microdilution, clinical strains; details: 0.02% BSA, 0.2% acetic acid
Method: as §1, §2

[7] = system: clinical strains of S. aureus; assay: MIC, microdilution, clinical strains; details: 0.02% BSA, 0.2% acetic acid
Method: as §1, §2

[8] = system: clinical strains of E. coli; assay: MIC, microdilution, clinical strains; details: microdilution, Muller Hinton broth-cation adjusted, 0.02% BSA, 0.2% acetic acid
Method: as §1, §2

CC(C)C[C@@H](NC(=O)[C@@H](Cc1c[nH]c2ccccc12)NC(=O)[C@@H](Cc1ccccc1)NC(=O)[C@@H](Cc1c[nH]c2ccccc12)NC(=O)[C@@H](CCCCN)NC(=O)[C@@H](CCCNC(=N)N)NC(=O)[C@H](N)Cc1c[nH]c2ccccc12)C(=O)N[C@H](Cc1ccccc1)C(=O)N[C@H](CCCCN)C(=O)N[C@H](CCCCN)C(=O)N[C@H](CCCNC(=N)N)C(=O)O [Chain309D] (H-[dW][dR][dK][dW][dF][dW][dL][dF][dK][dK][dR]-OH)
Minimum inhibitory concentration (C. quillermondiae): 8 | Minimum inhibitory concentration (C. glabrata; C. glabrata clinical yeast strain 1): 32 | Minimum inhibitory concentration (C. glabrata; C. glabrata clinical yeast strain 2): 64 | Minimum inhibitory concentration (C. glabrata; C. glabrata clinical yeast strain 3): 4 | Minimum inhibitory concentration (C. glabrata; C. glabrata clinical yeast strain 4): 128 | Minimum inhibitory concentration (Candida albicans; Candida albicans clinical yeast strain 1): 32 | Minimum inhibitory concentration (Candida albicans; Candida albicans clinical yeast strain 2): 32 | Minimum inhibitory concentration (Candida albicans; Candida albicans clinical yeast strain 3): 16 | Minimum inhibitory concentration (Candida albicans; Candida albicans clinical yeast strain 4): 16 | Minimum inhibitory concentration (Candida albicans; Candida albicans clinical yeast strain 5): 32 | Minimum inhibitory concentration (C. parapsilosis; C. parapsilosis clinical yeast strain 1): 64 | Minimum inhibitory concentration (C. parapsilosis; C. parapsilosis clinical yeast strain 2): 64 | Minimum inhibitory concentration (C. parapsilosis; C. parapsilosis clinical yeast strain 3): 32 | Minimum inhibitory concentration (C. parapsilosis; C. parapsilosis clinical yeast strain 4): 16 | Minimum inhibitory concentration ([1]; Klebsiella pneumoniae strain 1, Muller Hinton broth-cation adjusted): 128 | Minimum inhibitory concentration ([1]; Klebsiella pneumoniae strain 2, Muller Hinton broth-cation adjusted): 32 | Minimum inhibitory concentration ([1]; Klebsiella pneumoniae strain 3, Muller Hinton broth-cation adjusted): >128 | Minimum inhibitory concentration ([1]; Klebsiella pneumoniae strain 4, Muller Hinton broth-cation adjusted): 32 | Minimum inhibitory concentration ([1]; Klebsiella pneumoniae strain 5, Muller Hinton broth-cation adjusted): 128 | Minimum inhibitory concentration ([2]; Enterobacter cloacae strain 1, Muller Hinton broth-cation adjusted): >128 | Minimum inhibitory concentration ([2]; Enterobacter cloacae strain 2, Muller Hinton broth-cation adjusted): 128 | Minimum inhibitory concentration ([2]; Enterobacter cloacae strain 3, Muller Hinton broth-cation adjusted): 64 | Minimum inhibitory concentration ([2]; Enterobacter cloacae strain 4, Muller Hinton broth-cation adjusted): 64 | Minimum inhibitory concentration ([2]; Enterobacter cloacae strain 5, Muller Hinton broth-cation adjusted): 32 | Minimum inhibitory concentration ([3]; Serratia marcescens strain 1, Muller Hinton broth-cation adjusted): >128 | Minimum inhibitory concentration ([3]; Serratia marcescens strain 2, Muller Hinton broth-cation adjusted): >128 | Minimum inhibitory concentration ([3]; Serratia marcescens strain 3, Muller Hinton broth-cation adjusted): >128 | Minimum inhibitory concentration ([3]; Serratia marcescens strain 4, Muller Hinton broth-cation adjusted): >128 | Minimum inhibitory concentration ([3]; Serratia marcescens strain 5, Muller Hinton broth-cation adjusted): >128 | Minimum inhibitory concentration ([4]; Proteus mirabilis strain 1, Muller Hinton broth-cation adjusted): >128 | Minimum inhibitory concentration ([4]; Proteus mirabilis strain 2, Muller Hinton broth-cation adjusted): >128 | Minimum inhibitory concentration ([4]; Proteus mirabilis strain 3, Muller Hinton broth-cation adjusted): >128 | Minimum inhibitory concentration ([4]; Proteus mirabilis strain 4, Muller Hinton broth-cation adjusted): >128 | Minimum inhibitory concentration ([4]; Proteus mirabilis strain 5, Muller Hinton broth-cation adjusted): >128 | Minimum inhibitory concentration ([5]; Pseudomonas aeruginosa strain 1, Muller Hinton broth-cation adjusted): 16 | Minimum inhibitory concentration ([5]; Pseudomonas aeruginosa strain 2, Muller Hinton broth-cation adjusted): 32 | Minimum inhibitory concentration ([5]; Pseudomonas aeruginosa strain 3, Muller Hinton broth-cation adjusted): 16 | Minimum inhibitory concentration ([5]; Pseudomonas aeruginosa strain 4, Muller Hinton broth-cation adjusted): 32 | Minimum inhibitory concentration ([5]; Pseudomonas aeruginosa strain 5, Muller Hinton broth-cation adjusted): 8 | Minimum inhibitory concentration ([6]; Streptococcus pneumoniae strain 1, Muller Hinton broth-cation adjusted): 64 | Minimum inhibitory concentration ([6]; Streptococcus pneumoniae strain 2, Muller Hinton broth-cation adjusted): 64 | Minimum inhibitory concentration ([6]; Streptococcus pneumoniae strain 3, Muller Hinton broth-cation adjusted): 64 | Minimum inhibitory concentration ([6]; Streptococcus pneumoniae strain 4, Muller Hinton broth-cation adjusted): 64 | Minimum inhibitory concentration ([6]; Streptococcus pneumoniae strain 5, Muller Hinton broth-cation adjusted): 64 | Minimum inhibitory concentration ([7]; Staphylococcus aureus strain 1, Muller Hinton broth-cation adjusted): 8 | Minimum inhibitory concentration ([7]; Staphylococcus aureus strain 2, Muller Hinton broth-cation adjusted): 16 | Minimum inhibitory concentration ([7]; Staphylococcus aureus strain 3, Muller Hinton broth-cation adjusted): 8 | Minimum inhibitory concentration ([7]; Staphylococcus aureus strain 4, Muller Hinton broth-cation adjusted): 8 | Minimum inhibitory concentration ([7]; Staphylococcus aureus strain 5, Muller Hinton broth-cation adjusted): 8 | Minimum inhibitory concentration ([8]; Escherichia coli strain 1): 0.5 | Minimum inhibitory concentration ([8]; Escherichia coli strain 2): 32 | Minimum inhibitory concentration ([8]; Escherichia coli strain 3): 16 | Minimum inhibitory concentration ([8]; Escherichia coli strain 4): 32 | Minimum inhibitory concentration ([8]; Escherichia coli strain 5): 16
